The subject of experiment [1] is Rattus norvegicus. Description: In vivo activation of SIRT1 in myocardial tissue of myocardial ischemia Sprague-Dawley rat model at 10 to 30 mg/kg, IG treated for 7 days consecutively followed by ISO administration daily for 2 days consecutively by Western blot analysis. In kind it is functional, organism-based. The following applies: dose 10-30 mg/kg, time 9.0 day.

The subject of experiment [2] is H9c2. Description: Cardioprotective activity against CoCl2-induced cellular hypoxia injury in rat H9c2 cells assessed as ROS accumulation at 5 uM incubated for 24 hrs by DCFH-DA probe based analysis (reference value: 28.03 %). In kind it is functional.
Experiment [3] relates to Rattus norvegicus. Description: Cardioprotective activity in myocardial ischemia Sprague-Dawley rat model assessed as myocardial infarction area at 10 mg/kg, IG treated for 7 days consecutively followed by ISO administration daily for 2 days consecutively by TTC staining based analysis (reference value: 32.65 %). In kind it is functional. Particulars: time 9 day.
The subject of experiment [4] is H9c2. Description: Cardioprotective activity against CoCl2-induced cellular hypoxia injury in rat H9c2 cells assessed as cell viability at 10 uM incubated for 24 hrs by CCK-8 assay (reference value: 51.80 +/- 2.58 %). In kind it is functional. The following applies: read-out: Activity.
In experiment [5] the test system is Rattus norvegicus. Description: Cardioprotective activity in myocardial ischemia Sprague-Dawley rat model assessed as decrease in myocardial injury administered intragastrically for 7 days consecutively followed by ISO administration daily for 2 days consecutively by H and E/Masson staining based analysis. In kind it is functional, organism-based. Particulars: dose 10-30 mg/kg, route ig, time 9.0 day.

Experiment [6] has as its system H9c2. Description: Cardioprotective activity against CoCl2-induced cellular hypoxia injury in rat H9c2 cells assessed as cell viability at 0.625 uM incubated for 24 hrs by CCK-8 assay (reference value: 51.80 +/- 2.58 %). The class given is functional. Particulars: read-out: Activity.

Activity calls are given as the source filed them. The rule behind the calls is not given here.

Take `C=CCSSCCC(=O)O[C@H]1CC[C@]2(C)[C@H]3C[C@@H](O)[C@@H]4[C@@H]([C@]5(C)CC[C@@H](C(C)(C)O)O5)CC[C@@]4(C)[C@]3(C)CC[C@H]2C1(C)C`: the outcome in the experiment on Rattus norvegicus [1] was Active. Further, the Activity is 6.38% in the experiment on H9c2 [2], 12.68% in the experiment with Rattus norvegicus [3] and “Dose-dependent-effect” in the experiment with Rattus norvegicus [5]. For the same compound, the viability at 10 µM in the experiment with H9c2 [4] turned out to be 97.9%. Also, the viability at 0.625 µM with H9c2 [6] is 76.5%.

Values taken from ChEMBL document CHEMBL6120941, “Discovery of SIRT1-Activating Hydrogen Sulfide Donating Derivatives for Efficient Resistant of Myocardial Ischemic Injury” (J Med Chem, 2024).
